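A five-concentration, 48-hour dose response in 96-well plates underlies each endpoint, interpolated linearly between surrounding concentrations. GI50 marks 50% less growth.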 Calls of active or inactive are those of the source. Rule as the data show it: active = GI50 up to about 1.1 µM and inactive = higher.
Key:
Experiment in all cases: inhibition of tumour cell growth, NCI panel, 48 h
A498 = tested on: A498
CAKI-1 = tested on: CAKI-1
CCRF-CEM = tested on: CCRF-CEM
DU-145 = tested on: DU-145
HL-60 = tested on: HL-60
HOP-62 = tested on: HOP-62
LOX IMVI = tested on: LOX IMVI
MDA-MB-231 = tested on: MDA-MB-231
NCI-H226 = tested on: NCI-H226
OVCAR-3 = tested on: OVCAR-3
OVCAR-5 = tested on: OVCAR-5
RPMI-8226 = tested on: RPMI-8226
SF-268 = tested on: SF-268
SF-295 = tested on: SF-295
SF-539 = tested on: SF-539
SK-MEL-28 = tested on: SK-MEL-28
TK-10 = tested on: TK-10
UO-31 = tested on: UO-31
UACC-62 = tested on: UACC-62
T47D = tested on: T47D

Structure (SMILES)	GI50 (A498)	GI50 (CAKI-1)	GI50 (CCRF-CEM)	GI50 (DU-145)	GI50 (HL-60)	GI50 (HOP-62)	GI50 (LOX IMVI)	GI50 (MDA-MB-231)	GI50 (NCI-H226)	GI50 (OVCAR-3)	GI50 (OVCAR-5)	GI50 (RPMI-8226)	GI50 (SF-268)	GI50 (SF-295)	GI50 (SF-539)	GI50 (SK-MEL-28)	GI50 (TK-10)	GI50 (UO-31)	GI50 (UACC-62)	GI50 (T47D)
BrC1(c2ccccc2)C[n+]2c(-c3ccccc3)cc(-c3ccccc3)cc2-c2ccccc21 (configuration not stated)	1.81 µM (inactive)	3.66 µM (inactive)	0.52 µM (active)	0.931 µM (active)	0.168 µM (active)	0.611 µM (active)	0.363 µM (active)	0.336 µM (active)	0.659 µM (active)	0.0489 µM (active)	1.27 µM (inactive)	0.127 µM (active)	0.409 µM (active)	1.03 µM (active)	0.764 µM (active)	0.92 µM (active)	1.73 µM (inactive)	1.35 µM (inactive)	–	–
CC(C)(C)OC(=O)NC(CSCc1ccc(C(=O)c2ccccc2)cc1)C(=O)O (configuration not stated)	> 100 µM (inactive)	> 100 µM (inactive)	> 100 µM (inactive)	> 100 µM (inactive)	> 100 µM (inactive)	> 100 µM (inactive)	> 100 µM (inactive)	> 100 µM (inactive)	> 100 µM (inactive)	> 100 µM (inactive)	> 100 µM (inactive)	61.5 µM (inactive)	> 100 µM (inactive)	> 100 µM (inactive)	> 100 µM (inactive)	> 100 µM (inactive)	> 100 µM (inactive)	> 100 µM (inactive)	–	–
CC(=O)O[C@H]1CC[C@@]2(C)C(=C[C@H](c3ccc(O)cc3)[C@H]3[C@@H]4CC[C@H](OC(C)=O)[C@@]4(C)CC[C@@H]32)C1	0.51 µM (active)	18.6 µM (inactive)	21.3 µM (inactive)	20.7 µM (inactive)	19.6 µM (inactive)	19.1 µM (inactive)	14.1 µM (inactive)	17.9 µM (inactive)	17.4 µM (inactive)	17.3 µM (inactive)	23.7 µM (inactive)	14 µM (inactive)	19 µM (inactive)	29 µM (inactive)	21 µM (inactive)	–	32.3 µM (inactive)	25.2 µM (inactive)	10.4 µM (inactive)	–
Cc1c2ccccc2c(C)n2c1nc1ccccc12	5.42 µM (inactive)	–	5.06 µM (inactive)	18.5 µM (inactive)	83 µM (inactive)	10 µM (inactive)	–	–	11.6 µM (inactive)	5.41 µM (inactive)	16 µM (inactive)	7.16 µM (inactive)	9.89 µM (inactive)	4.93 µM (inactive)	4.56 µM (inactive)	7.85 µM (inactive)	13.4 µM (inactive)	5.35 µM (inactive)	10.2 µM (inactive)	17.5 µM (inactive)
Nc1c(C(=O)Nc2ccccc2)[n+]([O-])c2ccccc2[n+]1[O-]	16.9 µM (inactive)	5.6 µM (inactive)	19.1 µM (inactive)	–	17.9 µM (inactive)	19.1 µM (inactive)	12.3 µM (inactive)	–	23.9 µM (inactive)	17.3 µM (inactive)	22.5 µM (inactive)	20.6 µM (inactive)	25.1 µM (inactive)	20.9 µM (inactive)	17.9 µM (inactive)	17.8 µM (inactive)	24.7 µM (inactive)	21.2 µM (inactive)	10.5 µM (inactive)	–
O=C(O)c1cc2cc(c1)/N=C/c1ccccc1OCc1cccc(n1)COc1ccccc1/C=N/2	> 25 µM (inactive)	–	9.71 µM (inactive)	> 25 µM (inactive)	12.2 µM (inactive)	> 25 µM (inactive)	–	> 25 µM (inactive)	10.9 µM (inactive)	5.11 µM (inactive)	> 25 µM (inactive)	7.41 µM (inactive)	13.2 µM (inactive)	6.24 µM (inactive)	8.17 µM (inactive)	23.3 µM (inactive)	13.6 µM (inactive)	> 25 µM (inactive)	8.45 µM (inactive)	–
O=C1C2C3C=CC(C2C(=O)N1CN1CCSCC1)C1C2C(=O)N(CN4CCSCC4)C(=O)C2C31 (configuration not stated)	> 100 µM (inactive)	> 100 µM (inactive)	45.9 µM (inactive)	–	29.9 µM (inactive)	> 100 µM (inactive)	> 53.5 µM (inactive)	–	> 100 µM (inactive)	> 100 µM (inactive)	> 100 µM (inactive)	25.5 µM (inactive)	> 50.4 µM (inactive)	> 100 µM (inactive)	> 100 µM (inactive)	> 100 µM (inactive)	> 100 µM (inactive)	> 100 µM (inactive)	> 100 µM (inactive)	–
COc1ccc(COC(=O)NNC(=O)C2CSC(c3ccccc3)N2C(C)=O)cc1 (configuration not stated)	> 100 µM (inactive)	> 100 µM (inactive)	> 100 µM (inactive)	> 100 µM (inactive)	> 100 µM (inactive)	> 100 µM (inactive)	> 100 µM (inactive)	–	> 100 µM (inactive)	> 100 µM (inactive)	> 100 µM (inactive)	> 100 µM (inactive)	> 100 µM (inactive)	> 100 µM (inactive)	> 100 µM (inactive)	–	> 100 µM (inactive)	> 100 µM (inactive)	> 100 µM (inactive)	–
C=C1c2nc3ccccc3n2C=C(c2ccc(Cl)cc2)N1c1ccccc1	37.2 µM (inactive)	15.7 µM (inactive)	> 100 µM (inactive)	32.5 µM (inactive)	41.1 µM (inactive)	–	33.7 µM (inactive)	27.2 µM (inactive)	0.031 µM (active)	17.2 µM (inactive)	26.5 µM (inactive)	28 µM (inactive)	–	11.7 µM (inactive)	13.2 µM (inactive)	11.7 µM (inactive)	12.4 µM (inactive)	13.4 µM (inactive)	18.3 µM (inactive)	–
CC1C(O)=C(O)c2ccccc2N1O (configuration not stated)	> 100 µM (inactive)	> 100 µM (inactive)	47.3 µM (inactive)	–	44.2 µM (inactive)	73.3 µM (inactive)	82.2 µM (inactive)	–	37.4 µM (inactive)	> 100 µM (inactive)	> 100 µM (inactive)	80.4 µM (inactive)	> 100 µM (inactive)	> 100 µM (inactive)	> 100 µM (inactive)	> 100 µM (inactive)	> 100 µM (inactive)	> 100 µM (inactive)	> 100 µM (inactive)	–
O=C(c1ccc(Cl)cc1)C(O)c1ccc(Cl)cc1 (configuration not stated)	–	> 100 µM (inactive)	> 100 µM (inactive)	92 µM (inactive)	32.5 µM (inactive)	> 100 µM (inactive)	> 100 µM (inactive)	> 100 µM (inactive)	> 100 µM (inactive)	43.8 µM (inactive)	> 100 µM (inactive)	60.4 µM (inactive)	> 100 µM (inactive)	> 100 µM (inactive)	65.5 µM (inactive)	> 100 µM (inactive)	63.4 µM (inactive)	> 100 µM (inactive)	42 µM (inactive)	–
C=CCCCCCCCCCP(=O)(c1ccccc1)c1ccc2c(c1)OCCOCCOCCOCCO2 (configuration not stated)	14.2 µM (inactive)	> 100 µM (inactive)	16.5 µM (inactive)	–	5.18 µM (inactive)	16.6 µM (inactive)	15.3 µM (inactive)	–	13.7 µM (inactive)	7.08 µM (inactive)	17.4 µM (inactive)	11.7 µM (inactive)	15.3 µM (inactive)	15.2 µM (inactive)	17.3 µM (inactive)	16.3 µM (inactive)	18.4 µM (inactive)	10.8 µM (inactive)	15.7 µM (inactive)	–
CN(C)CC1CC/C(=C\c2ccc(Cl)c(Cl)c2)C1=O (configuration not stated)	30.2 µM (inactive)	14.8 µM (inactive)	2.49 µM (inactive)	–	0.586 µM (active)	> 58.2 µM (inactive)	13.5 µM (inactive)	–	> 100 µM (inactive)	28.3 µM (inactive)	> 55.2 µM (inactive)	1.95 µM (inactive)	31.6 µM (inactive)	48.6 µM (inactive)	> 40.5 µM (inactive)	39.3 µM (inactive)	13.2 µM (inactive)	> 40.6 µM (inactive)	17.6 µM (inactive)	–
Cc1ccc(CCNC(=S)SCC(NC(=O)CCC(N)C(=O)O)C(=O)NCC(=O)O)cc1 (configuration not stated)	2.03 µM (inactive)	1.41 µM (inactive)	0.442 µM (active)	–	0.51 µM (active)	2.96 µM (inactive)	0.388 µM (active)	–	2.26 µM (inactive)	2.17 µM (inactive)	2.51 µM (inactive)	0.288 µM (active)	2.7 µM (inactive)	2.81 µM (inactive)	1.48 µM (inactive)	2.75 µM (inactive)	2.84 µM (inactive)	1.12 µM (inactive)	1.41 µM (inactive)	–
Cc1cc(N(CCC#N)CCC#N)ccc1/C=C(/NC(=O)/C=C/c1ccccc1)C(N)=O	> 100 µM (inactive)	> 100 µM (inactive)	> 100 µM (inactive)	–	> 100 µM (inactive)	> 100 µM (inactive)	97.5 µM (inactive)	–	> 100 µM (inactive)	> 100 µM (inactive)	> 100 µM (inactive)	> 100 µM (inactive)	> 100 µM (inactive)	> 100 µM (inactive)	> 100 µM (inactive)	> 100 µM (inactive)	> 100 µM (inactive)	> 100 µM (inactive)	> 100 µM (inactive)	–
CCN(CC)C1CCC(C2c3cc4c(cc3OC(N3CCOCC3)C2C)OCO4)CC1 (configuration not stated)	21 µM (inactive)	> 100 µM (inactive)	27.2 µM (inactive)	18.5 µM (inactive)	22.6 µM (inactive)	18.3 µM (inactive)	11.4 µM (inactive)	–	–	14.7 µM (inactive)	36.4 µM (inactive)	15.5 µM (inactive)	> 100 µM (inactive)	9.46 µM (inactive)	22.3 µM (inactive)	16.3 µM (inactive)	> 30.6 µM (inactive)	36.9 µM (inactive)	16.7 µM (inactive)	14.4 µM (inactive)
